Key:
Format in all cases: binding
[1] = system: T1, KRasG13C1-169 (Cys-light); assay: Covalent modification of protein controlled by ESI-MS
T1 construct: KRasWT1-169 and KRasG13C1-169 Cys-light (C51S C80L C118S) were expressed in BL21 (DE3) E. coli; hexahistidine (TEV site) (N, cleaved yes); made in house; host or cells: E. coli BL21 (DE3)
Procedure: After incubation at room temperature for the appropriate time, the modification of the protein was controlled by ESI-MS. For covalent modification of full-length KRasG13C, a nucleotide exchange with a 10-fold excess of the acryl-bearing nucleotides at pH 7.5 was first performed following incubation at room temperature for 24 h at pH 9.5 for covalent protein modification. Covalent protein modification was controlled by ESI-MS. The MS spectra were recorded on a VelosPro IonTrap (Thermo Scientific) with an EC 50/3 Nucleodur C18 1.8 μm column (Macherey and Nagel) and a gradient of the mobile phase A (0.1% formic acid in water) to B (0.1% formic acid in acetonitrile).

KRasWT1-169 = KRasWT1-169 (Homo sapiens, UniProt P01116); assay: HPLC-based approach for determination of affinities relative to GDP; details: for KA: KA = KA(GDP) x KrelA, GDP from KA = 1/KD; for relative association constant KrelA: relative to GDP
Procedure: The relative affinities of the nucleotide analogues were measured using an HPLC-based approach. 50 μM of […] was mixed with 50 μM of the acetamide derivatives and incubated either for 7 days at room temperature in the absence of EDTA, for 24 hr at 4 °C in the presence of 10 mM EDTA, or for 1 hr at room temperature in the presence of SOS in a buffer consisting of 20 mM HEPES (pH 7.5), 100 mM NaCl, 2 mM MgCl2, 1 mM TCEP and 5% glycerol. After incubation, the Ras proteins were washed five times with buffer (15 mL) using centrifugal filter devices to remove any unbound nucleotide, concentrated and analysed by isocratic HPLC runs. The resulting curves were analysed by integrating the corresponding peaks for GDP and the guanosine nucleotide analogues after distinct time points using the Agilent ChemStation Software (Table 1-source data 3, Table 1-source data 4). Based on the percentage distribution determined by the HPLC assay, the relative association constants (KrelA) for […] and bdaGDP could subsequently be calculated. In contrast, the superposition of the GDP signal prevented an exact determination of the relative association constant for […] values of 0.34 and 0.28 relative to GDP were determined for […] and bdaGDP, respectively. […] By rearranging the equilibrium reactions listed in (Equation 1a) and (Equation 1b), the following relationships are obtained for KGDP (Equation 2a) and […] Assuming that the concentration for aGDP used in the HPLC assay is 50 μM, the following GDP concentrations for […] (Equation 3a) and bdaGDP (Equation 3b) can be determined at time t=0 hr using the percentages determined in Table 1-source data 3:(3a) GDPtotal=%GDP/%[…]=37%/63%×50μM=29.4μM (3b) GDPtotal=%GDP/%bdaGDP=43%/57%×50μM=37.7μM The concentrations of the components listed in equation (Equation 2b) can be calculated as follows for […] (Equation 4a, Equation 4b, Equation 4c, Equation 4d) and bdaGDP (Equation 5a, Equation 5b, Equation 5c, Equation 5d) by considering the total GDP concentrations calculated previously:(4[…]]=47/100×29.4μM=13.8μM (4b) [Ras:GDP]=53/100×29.4μM=15.6μ[…]]=50μM-13.8μM=36.2μM (4d) [GDP]=29.4μM-15.6μM=13.8μM (5a) [Ras:bdaGDP]=39.5/100×37.7μM=14.9μM (5b) [Ras:GDP]=60.5/100×37.7μM=22.8μM (5c) [bdaGDP]=50μM-14.9μM=35.1μM (5d) [GDP]=37.7μM-22.8μM=14.9μM The relative association constant KrelA can be calculated by the following formula (Equation 6):(6) […] By inserting the concentrations of each component determined from (Equation 4a, Equation 4b, Equation 4c, Equation 4d) and (Equation 5a, Equation 5b, Equation 5c, Equation 5d) into (Equation 6), the relative association constants KrelA for […] (Equation 10a) and […]=1/0.136pM^-1=7.4pM (10b) KDbdaGDP=1/0.112pM^-1=8.9pM

nucleotide-free KRas = assay: Stopped-flow competition with mantdGDP (association kinetics); details: for kon: 25 °C, 1 µM KRas, 2 µM mantdGDP, 1, 2, 6 µM competing nucleotide, global fit; for koff: calculated kinetic parameter
Procedure: The association kinetics of the nucleotide analogues were analyzed with a SX-20 stopped-flow instrument (Applied Photophysics) at 25 °C in a buffer consisting of 25 mM HEPES (pH 7.5), 100 mM NaCl, 1 mM MgCl2, and 0.5 mM TCEP. 1 µM of nucleotide-free KRas ([Müller et al., 2017]) in one syringe was mixed rapidly with 2 µM mantdGDP in the other. In subsequent experiments, the second syringe contained competing nucleotides (1, 2, and 6 µM) in addition to 2 µM mantdGDP. The resulting progress curves were globally fit using KinTek Explorer to obtain the corresponding association rate constants as previously described (Table 1—source data 1, Table 1—source data 2 [Johnson et al., 2009]).

[2] = -EDTA, 7 days at room temperature
[3] = worked calculation KD = 1/KA, Equation 10a/10b

Chain of KRasWT1-169 (P01116 1-169): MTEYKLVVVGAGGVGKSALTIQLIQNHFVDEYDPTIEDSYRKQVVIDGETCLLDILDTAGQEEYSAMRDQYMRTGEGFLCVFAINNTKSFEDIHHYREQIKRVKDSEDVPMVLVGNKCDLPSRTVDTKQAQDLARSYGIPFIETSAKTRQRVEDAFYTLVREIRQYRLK

C=CC(=O)NCCCNC(=O)O[C@H]1[C@@H](O)[C@H](n2cnc3c(=O)[nH]c(N)nc32)O[C@@H]1COP(=O)(O)OP(=O)(O)O [acryl-pdaGDP] was tested, and the “covalent labelling of KRasG13C1-169 (Cys-light)” value (“covalent labelling” below) ([1]; pH 7.5, after 24 hr) was “slight labelling” and the “covalent labelling” value ([1]; pH 9.5, after 24 hr) was ~100%.

C=CC(=O)NCCCCNC(=O)O[C@H]1[C@@H](O)[C@H](n2cnc3c(=O)[nH]c(N)nc32)O[C@@H]1COP(=O)(O)OP(=O)(O)O [bdaGDP] showed a Kd (KRasWT1-169; +SOS, 1 hr at room temperature) of 10 pM, a Kd (KRasWT1-169; [2]) of 10 pM and a KA (KRasWT1-169) of 0.112 pM⁻¹. For the same compound, the “relative association constant KrelA” value (KRasWT1-169) was 0.28, the Kd (KRasWT1-169; [3]) was 8.9 pM and the kon (nucleotide-free KRas) was 3.12 µM^–1s^–1. For the same compound, the koff (nucleotide-free KRas) was 3.0x10^–5 s^–1.

C=CC(=O)NCCCNC(=O)O[C@H]1[C@@H](O)[C@H](n2cnc3c(=O)[nH]c(N)nc32)O[C@@H]1COP(=O)(O)OP(=O)(O)O [pdaGDP] was tested, and the Kd (KRasWT1-169; +SOS, 1 hr at room temperature) was 10.4 pM, the Kd (KRasWT1-169; [2]) was 8 pM and the KA (KRasWT1-169) was 0.136 pM⁻¹. The “relative association constant KrelA” value (KRasWT1-169) was 0.34, the Kd (KRasWT1-169; [3]) was 7.4 pM and the kon (nucleotide-free KRas) was 3.34 µM^–1s^–1. The koff (nucleotide-free KRas) was 2.9x10^–5 s^–1.

Compound Nc1nc2c(ncn2[C@@H]2O[C@H](COP(=O)(O)OP(=O)(O)OP(=O)(O)O)[C@@H](O)[C@H]2O)c(=O)[nH]1 [GTP, reference compound] has a kon (nucleotide-free KRas) of 5.23 µM^–1s^–1.

In the case of C=CC(=O)NCCCCNC(=O)O[C@H]1[C@@H](O)[C@H](n2cnc3c(=O)[nH]c(N)nc32)O[C@@H]1COP(=O)(O)OP(=O)(O)O [acryl-bdaGDP], the “covalent labelling” value ([1]; pH 7.5, after 24 hr) is reported as “slight labelling” and the “covalent labelling” value ([1]; pH 9.5, after 24 hr) is reported as ~100%.
